Data: US5462726A, “Method of inhibiting side effects of solvents containing ricinoleic acid or castor oil or derivatives thereof employing a thromboxane A2 receptor antagonist and pharmaceutical compositions containing such solvents” (priority 1993, dated 1995)
Entries after “also recorded” stand apart in the source; their conditions may differ. Counter-ions that a name gives are not always drawn. Like-named read-outs stand apart in the source and are kept apart here.

Columns and labels:
[1] = tested on: U-46,619-evoked platelet shape change; details: Ogletree et al 1993; cited from earlier work
[2] = molecular target: T1, thromboxane A2 /prostaglandin endoperoxide receptor (Oryctolagus cuniculus, UniProt Q6WQI8); assay: Antagonism of U-46,619-induced force in the jugular vein; type: cell-based; details: rabbit jugular vein
T1 sequence (Q6WQI8 1-233): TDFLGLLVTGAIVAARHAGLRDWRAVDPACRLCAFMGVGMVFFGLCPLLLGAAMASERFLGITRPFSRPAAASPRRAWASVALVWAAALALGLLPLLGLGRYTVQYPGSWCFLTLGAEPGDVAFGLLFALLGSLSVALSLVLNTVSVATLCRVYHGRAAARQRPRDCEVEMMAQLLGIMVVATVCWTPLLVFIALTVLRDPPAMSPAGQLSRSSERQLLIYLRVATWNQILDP
Experimental: (§1) Male New Zealand white rabbits were euthanized by intravenous barbiturate overdose. The thoracic aorta and the left and right external jugular veins were then removed into warm (37° C.) physiological salt solution (PSS) of the following composition (mM): NaCl, 118.4; KCl, 4.7; CaCl2, 2.5; MgSO4, 1.2; NaHCO3, 24.9; KH2 PO4, 1.2; glucose, 11.1 and EDTA, 0.023; gassed with 95% O2 /5% CO2, pH 7.4. The vessels were cleaned of fat and loose adventitia and subsequently cut into rings 3-4 mm in width. The endothelium was removed from the rings, unless otherwise indicated, by gently rotating a metal probe in the lumen of the ring. The rings were then suspended in water-jacketed (37° C.) 10 ml tissue baths between two wire holders, one of which was attached to a fixed hook and the other to an isometric force transducer. Resting tension was set at 4 g for the aorta and 1 g for the jugular vein. The venous tissues were allowed to stabilize for a period of one hour and then challenged with a maximally effective concentration of bradykinin (1 μM) to evoke a tonic contracture. This response was used as a comparative reference response. Carbachol (1 μM) was introduced into the bath following stabilization of the bradykinin contracture to test for the presence of endothelium. […] The tissues were washed multiple times with fresh PSS and allowed to recover for one hour following complete relaxation from the previous bradykinin response. […] Inhibitors (enzyme or receptor) or their vehicle were introduced into the tissue bath 30 mins prior to the addition of stimulant. […]
(§2) Force (mean±S.E.) is expressed as a percentage of the corresponding bradykinin or phenylephrine reference response. KB values were determined by Schild analysis and KBapp by the following formula: KBapp =[antagonist]/agonist concentration ratio-1, where agonist concentration ratio=agonist EC50 measured in presence of antagonist/agonist EC50 measured in presence of vehicle. The statistical significance between means was determined using Student's t-test with p<0.05 considered statistically significant.

[3] = molecular target: T2, ricinoleic acid-induced force in the aorta (thromboxane A2 receptors) (Oryctolagus cuniculus, UniProt Q6WQI8); assay: Antagonism of ricinoleic acid-induced force in the aorta; type: cell-based, rabbit
T2 sequence (Q6WQI8 1-233): T1 sequence (Q6WQI8 1-233)
Experimental: as §1, §2

[4] = tested on: Cremophor-induced force development in the jugular vein (thromboxane A2 receptors); assay: Inhibition of Cremophor-induced force in the jugular vein; type: cell-based, rabbit
Experimental: (§3) Male New Zealand white rabbits were euthanized by intravenous barbiturate overdose. The thoracic aorta and the left and right external jugular veins were then removed into warm (37° C.) physiological salt solution (PSS) of the following composition (mM): NaCl, 118.4; KCl, 4.7; CaCl2, 2.5; MgSO4, 1.2; NaHCO3, 24.9; KH2 PO4, 1.2; glucose, 11.1 and EDTA, 0.023; gassed with 95% O2 /5% CO2, pH 7.4. The vessels were cleaned of fat and loose adventitia and subsequently cut into rings 3-4 mm in width. The endothelium was removed from the rings, unless otherwise indicated, by gently rotating a metal probe in the lumen of the ring. The rings were then suspended in water-jacketed (37° C.) 10 ml tissue baths between two wire holders, one of which was attached to a fixed hook and the other to an isometric force transducer. Resting tension was set at 4 g for the aorta and 1 g for the jugular vein. The venous tissues were allowed to stabilize for a period of one hour and then challenged with a maximally effective concentration of bradykinin (1 μM) to evoke a tonic contracture. This response was used as a comparative reference response. Carbachol (1 μM) was introduced into the bath following stabilization of the bradykinin contracture to test for the presence of endothelium. […] The tissues were washed multiple times with fresh PSS and allowed to recover for one hour following complete relaxation from the previous bradykinin response. […] Inhibitors (enzyme or receptor) or their vehicle were introduced into the tissue bath 30 mins prior to the addition of stimulant.
(§4) Cremophor and ricinoleic acid (Sigma Chemical company) were also diluted in ethanol. […] Ricinoleic acid was diluted in ethanol to produce final bath concentrations of (μg/ml; final bath concentration of ethanol in parentheses): 0.1 (0.1%), 0.3 (0.3%), 1.0 (0.37%), 3.0 (0.57%), 10 (0.64%), 30 (0.84%). For reference, 0.1-30 μg/ml ricinoleic acid corresponds to a molar concentration range of 0.335-100.50 μM.
as §2

[5] = tested on: Cremophor-induced force in the aorta (thromboxane A2 receptors); assay: Antagonism of Cremophor-induced force in the aorta; type: cell-based, rabbit
Experimental: Male New Zealand white rabbits were euthanized by intravenous barbiturate overdose. The thoracic aorta and the left and right external jugular veins were then removed into warm (37° C.) physiological salt solution (PSS) of the following composition (mM): NaCl, 118.4; KCl, 4.7; CaCl2, 2.5; MgSO4, 1.2; NaHCO3, 24.9; KH2 PO4, 1.2; glucose, 11.1 and EDTA, 0.023; gassed with 95% O2 /5% CO2, pH 7.4. The vessels were cleaned of fat and loose adventitia and subsequently cut into rings 3-4 mm in width. The endothelium was removed from the rings, unless otherwise indicated, by gently rotating a metal probe in the lumen of the ring. The rings were then suspended in water-jacketed (37° C.) 10 ml tissue baths between two wire holders, one of which was attached to a fixed hook and the other to an isometric force transducer. Resting tension was set at 4 g for the aorta and 1 g for the jugular vein. […]
as §2

[6] = tested on: ricinoleic acid-induced force in the jugular vein (thromboxane A2 receptors); assay: Antagonism of ricinoleic acid-induced force in the jugular vein; type: cell-based, rabbit; details: vein
Experimental: Male New Zealand white rabbits were euthanized by intravenous barbiturate overdose. The thoracic aorta and the left and right external jugular veins were then removed into warm (37° C.) physiological salt solution (PSS) of the following composition (mM): NaCl, 118.4; KCl, 4.7; CaCl2, 2.5; MgSO4, 1.2; NaHCO3, 24.9; KH2 PO4, 1.2; glucose, 11.1 and EDTA, 0.023; gassed with 95% O2 /5% CO2, pH 7.4. The vessels were cleaned of fat and loose adventitia and subsequently cut into rings 3-4 mm in width. The endothelium was removed from the rings, unless otherwise indicated, by gently rotating a metal probe in the lumen of the ring. The rings were then suspended in water-jacketed (37° C.) 10 ml tissue baths between two wire holders, one of which was attached to a fixed hook and the other to an isometric force transducer. Resting tension was set at 4 g for the aorta and 1 g for the jugular vein. The venous tissues were allowed to stabilize for a period of one hour and then challenged with a maximally effective concentration of bradykinin (1 μM) to evoke a tonic contracture. This response was used as a comparative reference response. Carbachol (1 μM) was introduced into the bath following stabilization of the bradykinin contracture to test for the presence of endothelium. […] The tissues were washed multiple times with fresh PSS and allowed to recover for one hour following complete relaxation from the previous bradykinin response. […] Inhibitors (enzyme or receptor) or their vehicle were introduced into the tissue bath 30 mins prior to the addition of stimulant. A similar procedure was followed for the aorta except the effects of carbachol (1 μM) were tested against a submaximal concentration of phenylephrine (0.3 μM) and 30 μM phenylephrine was used to establish a reference contracture.
as §4, §2

jugular vein = assay: Effect on ethanol-induced contraction of the jugular vein; type: cell-based, rabbit; details: 0.1 or 1 μM BMS-180291; n=3
[7] = molecular target: thromboxane A2 /prostaglandin endoperoxide receptor; details: against U-46,619-induced force; rat aorta; Ogletree et al 1993; cited from earlier work
[8] = tested on: U-46,619-induced platelet aggregation; details: Ogletree et al 1993; cited from earlier work
[9] = molecular target: T1, thromboxane A2 /prostaglandin endoperoxide receptor; details: against U-46,619-induced force; rabbit aorta; S. Moreland, unpublished; cited from earlier work
thromboxane A2 receptors = assay: Potency of U-46,619 across rabbit jugular vein, rabbit aorta and rat aorta; type: cell-based; details: rabbit aorta, rat aorta, present study and cited work
[10] = tested on: tissues with an intact endothelium; assay: Relaxation of endothelium-intact tissues by carbachol; type: cell-based, rabbit; details: Oryctolagus cuniculus; carbachol (1 μM) on bradykinin contracture
Experimental: Male New Zealand white rabbits were euthanized by intravenous barbiturate overdose. The thoracic aorta and the left and right external jugular veins were then removed into warm (37° C.) physiological salt solution (PSS) of the following composition (mM): NaCl, 118.4; KCl, 4.7; CaCl2, 2.5; MgSO4, 1.2; NaHCO3, 24.9; KH2 PO4, 1.2; glucose, 11.1 and EDTA, 0.023; gassed with 95% O2 /5% CO2, pH 7.4. The vessels were cleaned of fat and loose adventitia and subsequently cut into rings 3-4 mm in width. The endothelium was removed from the rings, unless otherwise indicated, by gently rotating a metal probe in the lumen of the ring. The rings were then suspended in water-jacketed (37° C.) 10 ml tissue baths between two wire holders, one of which was attached to a fixed hook and the other to an isometric force transducer. Resting tension was set at 4 g for the aorta and 1 g for the jugular vein. The venous tissues were allowed to stabilize for a period of one hour and then challenged with a maximally effective concentration of bradykinin (1 μM) to evoke a tonic contracture. This response was used as a comparative reference response. Carbachol (1 μM) was introduced into the bath following stabilization of the bradykinin contracture to test for the presence of endothelium. […]

[11] = molecular target: T3, CsA-induced force development in the jugular vein (thromboxane A2 receptors) (Oryctolagus cuniculus, UniProt Q6WQI8); assay: Inhibition of CsA-induced force in the jugular vein; type: cell-based, rabbit; details: CsA 3 μg/ml; present results
T3 sequence (Q6WQI8 1-233): T1 sequence (Q6WQI8 1-233)
Experimental: as §3, §4, §2

For `CCCCCNC(=O)c1coc(C2C3CCC(O3)C2Cc2ccccc2CCC(=O)O)n1` (stereo not drawn) [BMS-180291, [1S-[1α, 2α, 3α, 4α)]-2-[[3-[[4-(pentylamino)carbonyl]-2-oxazolyl]-7-oxabicyclo [2.2.1]hept-2-yl]-methyl]benzenepropanoic acid, sodium salt], the “Nature of antagonism of platelet shape change” value [1] is listed as “apparently competitive fashion”, the Kb ([2]; against U-46,619-induced force) is listed as 3.6 nM and the Schild slope ([2]; against U-46,619-induced force) is listed as 1.0. The “Nature of antagonism of U-46,619-induced force” value ([2]; sodium salt) was “apparently competitive antagonist”, the Schild slope ([3]; against ricinoleic acid, rabbit aorta) was 0.70 and the Kb ([3]; against ricinoleic acid, rabbit aorta, assuming competition) was 4.3 nM. For the same compound, the “Antagonism of ricinoleic acid-induced force” value ([3]; aorta) was “concentration-dependent antagonism”, the inhibition at 0.1 µM ([4]; Oryctolagus cuniculus, 0.1 μM BMS-180291, Cremophor 39 μg/ml, n=4, read-out: Relaxation of Cremophor-precontracted jugular vein) was 85.6 ± 3.9% and the “Nature of antagonism of Cremophor-induced responses” value ([4]; preincubation with BMS-180291 (10-300 nM), sodium salt) was “consistent with non-competitive antagonism; also recorded: apparently non-competitive fashion”. The “Effect on Cremophor-induced force in the aorta” value ([5]; BMS-180291) was “inhibited”, the Kb ([5]; Oryctolagus cuniculus, against Cremophor-induced force, assuming competitive antagonism, 0.03 μM BMS-180291 only, read-out: KBapp) was 6.4 nM and the Kb ([6]; Oryctolagus cuniculus, against ricinoleic acid, assuming competition, 0.03 and 0.1 μM BMS-180291 only, read-out: KBapp) was 1.9 nM. The “Antagonism of ricinoleic acid-induced force” value [6] was “concentration-dependent antagonism”, the “Effect on contractile effects of ethanol” value (jugular vein) was “completely refractory” and the Kb [7] was 0.6 nM. The “Nature of inhibition of platelet aggregation” value [8] was “apparently non-competitive fashion” and the Kb [9] was 4 nM.
In the case of `CCCCCC(O)C=CC1C2CC(CO2)C1CC=CCCCC(=O)O` (centres unmarked) [U-46,619, 11,9-epoxymethano-PGH2], the “Potency across the three tissues” value (thromboxane A2 receptors) is reported as “approximately equal potency in all three tissues”.
Work on `C[N+](C)(C)CCOC(N)=O` [carbachol] yielded a Percent relaxation at 1 µM [10] of 50 to 100%.
With `CC1(C)Oc2ccc(C#N)cc2C(N2CCCC2=O)C1O` (centres unmarked) [cromakalim] the “Effect on CsA-induced force” value [11] was “evoke relaxation of CsA (3 μg/ml CsA)-induced force”.
